Measurements from patent publication US10781203B2, “Nontoxic compounds for the treatment and prevention of herpesvirus infections” (The Penn State Research Foundation, priority 2016, dated 2020).

Assays:
HCMV [1] = test: HCMV single-step growth curve / virus titer analysis (MOI=3); assay type: cell-based, Human cytomegalovirus (HCMV); details: for reduction in infectious virion production: MOI=3, titers at 96 hpi
Procedure: (§1) Infections were done at an MOI of 0.05 for multi-step growth curves and MOI 3 for single-step growth curves. Infections were done on NHDFs unless otherwise noted. Virus was incubated with cells for 2 hours before addition of fresh media. For growth curve analyses, virus was harvested at the indicated time-points for each experiment by scraping the cells into the medium, sonicating 10 times with 1 second pulses, vortexing for 15 seconds, and centrifuging at 13,000 rpm for 10 min. Supernatants were collected, aliquoted and flash-frozen in liquid nitrogen before storage at −80° C.
(§2) For MCMV growth curve analysis, samples were titrated on NIH 3T3 cells and titers were calculated using the 50% tissue culture infective dose method. Both HCMV virus stocks and samples for growth curves were titrated by serial dilutions on MRC5 cells and quantified by the immunological detection of immediate-early proteins as previously described (Britt W J. Human cytomegalovirus: propagation, quantification, and storage. Curr Protoc Microbiol. 2010; Chapter 14: Unit 14E.3). The numbers of stained nuclei were acquired on a Nikon Eclipse Ti Inverted microscope and fluorescent nuclei were quantified using the NIS Elements Software. Images of viral foci from infection of ARPE19 cells were also acquired on Eclipse Ti Inverted microscope. The number and size of foci were quantified using NIS Elements software.
^1H NMR spectra were recorded on a 500 MHz Bruker spectrometer (Billerica, Mass.) using tetramethylsilane (TMS) as the internal reference. The following abbreviations were used to designate chemical shift multiplicities: s=singlet, d=doublet, dd=double doublet, t=triplet, dt=doublet of triplet, m=multiplet. Mass Spec analysis was performed on 4000 Q trap hybrid triple quadrupole/linear ion trap instrument (Applied Biosystems/MDS Sciex) at the proteomic facility at Penn State Hershey Cancer Institute, Hershey, Pa. Thin-layer chromatography (TLC) was on aluminum-supported, precoated silica gel plates (EM Industries, Gibbstown, N.J.). 5-(2-methyl-3-thiazol-4-yl)-2-thiophencarboxaldehyde was purchased from MAYBRIDGE-Thermo Fisher (Cornwall, UK). All other starting materials were obtained from Aldrich Chemical Co. (Milwaukee, Wis.) and used without further purification. Retro94 was added to cells at 2 hpi at a concentration of 10 μM, unless otherwise indicated.

HCMV [2] = test: HCMV multi-step growth curve (MOI=0.05); assay type: cell-based, Human cytomegalovirus (HCMV); details: MOI 0.05 pfu/cell; 15 dpi; media exchanged and fresh drug added at 6 dpi
Procedure: as §1
as §2, with “software. […]” for “software.”

[3] = tested on: HCMV-infected ARPE-19 cells (TB40); test: Spread of HCMV TB40-mCherry in ARPE-19 cells (viral foci area); assay type: cell-based, Human cytomegalovirus (HCMV); details: TB40-mCherry MOI=3, 10 μM, three weeks after infection
Procedure: FIG. 7A is a graph showing viral titers at 15 dpi of fibroblasts infected with various strains of HCMV (MOI=0.05) and treated with DMSO or Retro94 at 2 hpi. Media was changed and fresh Retro94 was added at 6 dpi. Bright field images representing CPE of above infections shown at right. FIG. 7B show HCMV-infected ARPE-19 cells (TB40, MOI=3) at 21 dpi treated with DMSO or Retro94 ([…]). Infected cells detected by monitoring mCherry (red) expressed by TB40 virus. Scale bars: 1 mm. The table below images show number of foci detected, average area and standard error of the mean. P<0.00001. […]
as §2, with “Images of viral foci from infection of ARPE19 cells were also acquired on Eclipse Ti Inverted microscope.” left out

STX5 = target: T1, STX5 (Homo sapiens, UniProt Q13190); test: Immunofluorescence detection of STX5 localization; assay type: cell-based
T1 construct: immunofluorescence detection of STX5 in uninfected (Mock) and HCMV-infected cells (96 hpi) in the presence of DMSO control or Retro94; endogenous in cells; host or cells: uninfected (mock) or HCMV-infected cells
T1 sequence (Q13190 1-355): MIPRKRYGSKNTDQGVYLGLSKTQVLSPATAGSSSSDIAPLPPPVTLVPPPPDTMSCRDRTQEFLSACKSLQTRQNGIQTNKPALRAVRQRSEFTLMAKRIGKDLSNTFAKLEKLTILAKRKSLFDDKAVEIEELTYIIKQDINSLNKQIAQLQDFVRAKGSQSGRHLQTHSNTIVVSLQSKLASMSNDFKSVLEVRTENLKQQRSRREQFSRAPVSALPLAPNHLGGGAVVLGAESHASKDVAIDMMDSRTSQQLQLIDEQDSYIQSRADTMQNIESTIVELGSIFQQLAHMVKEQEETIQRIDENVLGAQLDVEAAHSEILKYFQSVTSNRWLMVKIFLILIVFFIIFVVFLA
Procedure: Coverslips or chamber slides containing either uninfected or HCMV-infected cells were washed in phosphate-buffered saline (PBS) and fixed in 2% paraformaldehyde for 15 min at room temperature. Cells were blocked in PBS containing 10% human serum, 0.5% Tween-20, and 5% glycine. 0.1% Triton-X 100 was added for permeabilization. Primary and secondary antibodies as specified in the antibody section were diluted in blocking buffer. Nuclei were stained with DAPI prior to mounting with ProLong Diamond Antifade Mountant (ThermoScientific). For live-cell experiments using the pp28-mCherry virus, cells were grown on glass bottom microwell dishes (MatTek Corporation) and nuclei were stained with NucBlue Live Cell Stain ReadyProbes reagent (ThermoScientific). All images were acquired using a C2+ Confocal Microscope System (Nikon). Images were processed using NIS elements software. Images shown are volume renderings of Z-stacks.

## Cc1nc(-c2ccc(C3N(C)c4ccccc4C(=O)N3c3ccccc3)s2)cs1 (centres unmarked) [Retro94, 1-Methyl-2-(5-(2-methylthiazol-4-yl)thiophen-2-yl)-3phenyl-2,3-dihydroquinazolin-4(1H)-one]
HCMV [1]; Human betaherpesvirus 5, added at 2 hpi, MOI 3, 96 hpi, read-out: IC50 (HCMV titers)
  IC50: ~0.13 µM
HCMV [1]; MOI 3 pfu/cell, added two hours after infection, 10 μM
  reduction of production of infectious virions: greater than two
HCMV [1]; added at 2 hpi
  reduction in infectious virion production: two
HCMV [1]; added at 24 hpi
  reduction in infectious virion production: 20 fold
HCMV [1]; added at 48 hpi
  reduction in infectious virion production: 5 fold
HCMV [1]; added at 72 hpi
  reduction in infectious virion production: two
HCMV [1]; ten-fold dilutions added at 2 hpi, MOI 3, 96 hpi
  dilution at which a significant inhibition in viral titers was first present: 1 µM
HCMV [2]
  reduction in the amount of infectious virus produced: five
[3]
  area of viral centers, DMSO treated versus compound treated cells: more than twice
STX5; HCMV-infected cells, 96 hpi
  STX5 localization: dispersed throughout the cell and was not located to the cVAC ring
STX5; uninfected cells
  STX5 localization: lost its Golgi-localization
